We go through three molecules from patent US12691084B2, “Pharmaceutical composition for preventing or treating bone diseases” (INDUSTRY FOUNDATION OF CHONNAM NATIONAL UNIVERSITY, priority 2019, dated 2026).

Data set [1] has as its system osteoblast progenitor cells treated with hBMP2. The experiment in a line: Osteoblast differentiation, ALP staining. Format: cell-based, mouse. Conditions: 7 days. Here is the method: After collecting cells from C57BL/6J mouse calvaria at the age of 3 days, the cells were seeded on a 96-well plate in an amount of 4×10^3 cells per well, and then treated with 100 ng/ml of hBMP2 as a differentiation inducer. Simultaneously, the cells were treated with the compound of the present invention and cultured for 7 days, followed by ALP staining to assess differentiation influence. Specific experimental methods and results are as follows.
Precursor cells isolated from the mouse skull were treated with hBMP2 (Bone morphogenic protein 2, Sino biological, 10426-HNAE, 100 ng/ml) to induce differentiation into osteoblasts. Differentiated osteoblasts could be discriminated through alkaline phosphatase (ALP) staining as an osteoblast-specific protein. When the progenitor cells were treated with hBMP2, each of the 35D35 compounds was also used for treatment, followed by culturing the cells for 7 days while changing the medium every 2 to 3 days.
4×10^3 osteoblast progenitor cells were put into a 96-well plate and treated with hBMP2 to induce differentiation of osteoblasts. At this time, the cells were treated with #25 (PMSA-3-Ac) and #25-D12 (PMSA-2-OMe-5-Cl), respectively, and then cultured for 7 days.
After discarding the ethanol, the remaining product was washed with HBSS, followed by adding a NBT solution (Sigma, B1911) in an amount of 100 μl per well and staining for 15 minutes. By washing twice with water, the remaining dye was eliminated. After ALP staining, a degree of color development was measured using Image J software, and then graphed for comparison. […] In other words, it can be seen that the differentiation of osteoblasts is not affected by treatment with the PMSA compound.
Precursor cells isolated from the mouse skull were treated with hBMP2 (Bone morphogenic protein 2, Sino biological, 10426-HNAE) to induce differentiation into osteoblasts. […]
After ALP staining, the degree of color development was measured using Image J software, and then graphed for comparison. […]

Data set [2] has as its system osteoclast-specific genes (CatK, NFATc1, DC-STAMP, OC-STAMP, Acp5). The data set can be described thus: qRT-PCR of osteoclast-specific gene mRNA expression. It counts as cell-based, mouse. Particulars: for mRNA expression of DC-STAMP / mRNA expression of OC-STAMP / mRNA expression of cathepsin K (CtsK): day 3 of differentiation, compared to control (Ctrl) without PMSA treatment. Here is the method:
Further, in order to confirm the expression degree of the osteoclast-specific gene, an mRNA expression level was measured by RT-PCR in the PMSA compound-treated cells. RNA was isolated from the cells differentiated into osteoclasts using an RNeasy kit (Qiagen, 74106), quantified using a spectrophotometer, followed by synthesizing 0.5 μg of RNA using reverse transcriptase (Takara, RR037 A). The synthesized cDNA was subjected to qRT-PCR with a QuantStudio 3 real-time PCR system (Applied Biosystems) using Power SYBR Green […] (Applied Biosystems).
All qPCR experiments were performed in duplicate, and 18S was used as a control. The ddCT method was used for data analysis.
In order to further confirm the inhibitory effect of PSTP-3,5-Me on osteoclast differentiation, the expression levels genes related to osteoclast production were investigated. mRNA expression of specific markers associated with osteoclast production was measured by RT-PCR in 0 or 6 μM PSTP-3,5-Me-treated cells.
For qRT-PCR, total RNA was extracted from BMMs using a TRIzol reagent (Thermo Fisher Scientific, MA, USA). Complementary DNA was synthesized from the total RNA using a Verso cDNA synthesis kit (Thermo Fisher Scientific, MA, USA). Thereafter, quantitative PCR (qPCR) was performed using the QuantStudio 3 real-time PCR system (Applied Biosystems, CA, USA) together with Power SYBR Green PCR Master Mm (Applied Biosystems, CA, USA).

Another data set concerns the target CYP2D6 (Homo sapiens, UniProt P10635). The experiment in a line: CYP450 drug metabolism inhibition, 2D6. Particulars: criterion remaining activity >50%. It counts as in vitro ADME. Here is the method:
(§1) In order to analyze the drug metabolism of PMSA compound, ADME evaluation was requested to the Daegu-Gyeongbuk Advanced Medical industry Promotion Foundation (DGMIF). Metabolic stability of drugs using liver microsomes (microsomal stability), drug metabolism inhibitory ability by five CYP450 enzymes, plasma metabolism (plasma stability), plasma protein binding, and intestinal permeability of drugs (PAMPA, parallel artificial membrane permeability assay) were analyzed. […] Further, it was confirmed that the permeability resistance was excellent (see Table 3 below). On the other hand, for one of PMSA derivatives, that is, 2-(N-(3,5-dimethylphenyl)methylsulfinamido)-N-(2 (phenylthio)phenyl)propanamide (#25-D5), intestinal permeability of the drug (PAMPA) was not measured.

Data set [3] can be described thus: ADME evaluation (DGMIF), overall conclusion on toxicity. Format: in vitro ADME. Particulars: conclusion from ADME evaluation. Here is the method:
as §1

Data set [4] is described as follows: PAMPA, parallel artificial membrane permeability assay. Format: in vitro ADME. Conditions: for Papp: PAMPA, criterion >40, read-out: PAMPA (>40) Pe; for permeability resistance: conclusion from ADME evaluation. Here is the method: as §1
A general note: The PAMPA barrier holds no transporters, so it reflects passive diffusion.

The next data set deals with NFATc1. The data set can be described thus: Intranuclear migration of transcription factors, western blotting of nuclear and cytoplasmic proteins. Conditions: osteoclasts differentiated by RANKL for 3 days. It counts as cell-based, mouse. The text has this: In order to further confirm the inhibitory effect of the PMSA compound on osteoclast differentiation, the intranuclear migration of transcription factors NFATc1 and NF-kB and the expression degree of osteoclast-specific genes regulated by the transcription factors were investigated.
First, in order to confirm the intranuclear migration of transcription factors, osteoclasts differentiated by RANKL for 3 days were separated into nuclear protein and cytoplasmic protein using a NE-PER kit (ThermoFisher scientific 78833). Then, the expression of each of NFATc1 and NF-kB in each organelle was investigated through western blotting.

A further data set is described as follows: Microsomal stability (H). Format: in vitro ADME, human. Conditions: H of H/M; criterion >60%. Here is the method: as §1
In a further data set the target is CYP2C9 (Homo sapiens, UniProt P11712). The experiment in a line: CYP450 drug metabolism inhibition, 2C9. It counts as in vitro ADME. Particulars: criterion remaining activity >50%. On the procedure:
as §1

Setting [5] is: 6 μM compared to control (0 μM).

CYP2C9, sequence (P11712 whole entry): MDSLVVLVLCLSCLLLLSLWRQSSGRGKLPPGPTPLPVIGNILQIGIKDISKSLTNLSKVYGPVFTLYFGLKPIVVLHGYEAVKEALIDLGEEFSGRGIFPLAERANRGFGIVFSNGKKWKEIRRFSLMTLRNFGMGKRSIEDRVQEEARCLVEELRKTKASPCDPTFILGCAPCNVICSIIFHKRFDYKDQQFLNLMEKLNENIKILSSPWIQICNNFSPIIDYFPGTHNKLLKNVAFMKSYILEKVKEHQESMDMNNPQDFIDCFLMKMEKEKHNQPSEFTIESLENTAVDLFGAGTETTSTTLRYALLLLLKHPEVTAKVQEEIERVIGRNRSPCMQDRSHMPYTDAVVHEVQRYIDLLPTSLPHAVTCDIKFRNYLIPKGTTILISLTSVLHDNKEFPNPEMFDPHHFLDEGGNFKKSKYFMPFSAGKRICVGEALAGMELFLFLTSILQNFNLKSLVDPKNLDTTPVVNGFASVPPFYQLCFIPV
CYP2D6, sequence (P10635 whole entry): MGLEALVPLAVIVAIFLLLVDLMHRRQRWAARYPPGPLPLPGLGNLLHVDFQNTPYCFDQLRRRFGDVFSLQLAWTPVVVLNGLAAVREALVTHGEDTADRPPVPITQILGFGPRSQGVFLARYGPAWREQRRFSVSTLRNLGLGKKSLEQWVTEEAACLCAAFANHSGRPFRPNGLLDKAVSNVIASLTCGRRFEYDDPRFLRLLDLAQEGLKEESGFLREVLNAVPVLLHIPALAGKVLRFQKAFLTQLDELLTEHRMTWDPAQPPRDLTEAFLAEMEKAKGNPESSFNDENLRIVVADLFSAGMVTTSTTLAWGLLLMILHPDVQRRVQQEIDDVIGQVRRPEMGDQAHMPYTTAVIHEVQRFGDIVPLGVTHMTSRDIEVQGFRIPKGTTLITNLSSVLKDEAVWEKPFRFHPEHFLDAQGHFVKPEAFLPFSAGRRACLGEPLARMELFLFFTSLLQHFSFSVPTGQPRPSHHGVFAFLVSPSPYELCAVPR

`CC(=O)c1cccc(N(CC(=O)Nc2ccccc2Sc2ccccc2)S(C)(=O)=O)c1` [#25, 2-(N-(3-acetylphenyl)methylsulfonamido)-N-(2-(phenylthio)phenyl)acetamide]: the “osteoblast differentiation (ALP staining)” value (from here on “osteoblast differentiation”) in data set [1] was “did not inhibit or activate”. Further, in data set [2], the “mRNA expression of DC-STAMP” value is “decrease”, the “mRNA expression of OC-STAMP” value was “decrease” and the “mRNA expression of cathepsin K (CtsK)” value was “decrease”. The “CYP 2D6 remaining activity” value at CYP2D6 was 80.4%. Also, the toxicity result in data set [3] is recorded as “low toxicity”. In addition, in data set [4], the Papp is 59.4 ± 1.6 ×10⁻⁶ cm/s and the “permeability resistance” value was “excellent”. Moreover, in the data set with NFATc1, the “NFATc1 expression in the nucleus” value was “less expressed in the nucleus”. The “Microsomal stability (>60%) H” value in the data set “Microsomal stability (H)” was 8.7%. Besides, at CYP2C9, the “CYP 2C9 remaining activity” value was determined as 63.7%.
As to `Cc1cc(C)cc(N([C@@H](C)C(=O)Nc2ccccc2Sc2ccccc2)S(C)(=O)=O)c1` [#25-D5, N^2-(3,5-dimethylphenyl)-N^2-(methylsulfonyl)-N-[2-(phenylthio)phenyl]alanineamide], the “osteoblast differentiation” value in data set [1] is on record as “not affected”. Besides, in data set [2] (setting [5]), the Acp5 expression level entry was “slightly decreased”, the CatK expression degree entry is given as “significantly decreased”, the DC-STAMP expression level entry is “decreased on day 1” and the NFATc1 expression degree entry is “significantly decreased”. Moreover, the OC-STAMP expression level entry in data set [2] (setting [5]) was “decreased on day 1”. For the same molecule, on CYP2D6, the “CYP 2D6 remaining activity” value is listed as 87.3%. Besides, in “Microsomal stability (H)”, the “Microsomal stability (>60%) H” value was found to be 10.9%. Further, the “CYP 2C9 remaining activity” value on CYP2C9 is recorded as 52.4%.
For `COc1ccc(Cl)cc1N(CC(=O)Nc1ccccc1Sc1ccccc1)S(C)(=O)=O` [#25-D12, 2-(N-(5-chloro-2-methoxyphenyl)methylsulfonamido)-N-(2-(phenylthio)phenyl)acetamide], the “osteoblast differentiation” value in data set [1] is listed as “did not inhibit or activate”. Besides, in data set [2], the “mRNA expression of DC-STAMP” value is recorded as “decrease”, the “mRNA expression of OC-STAMP” value is on record as “decrease” and the “mRNA expression of cathepsin K (CtsK)” value is “decrease”. The “CYP 2D6 remaining activity” value on CYP2D6 came to 85.5%. Also, the toxicity result in data set [3] is “low toxicity”. Also, in data set [4], the Papp was 49 ± 2 ×10⁻⁶ cm/s and the “permeability resistance” value is reported as “excellent”. For the same molecule, the “NFATc1 expression in the nucleus” value in the data set with NFATc1 is on record as “less expressed in the nucleus”. The “Microsomal stability (>60%) H” value in the data set “Microsomal stability (H)” was 13.9%. In addition, the “CYP 2C9 remaining activity” value on CYP2C9 stood at 59.8%.
